{"source": "patent US9359418B2", "about": "“Inhibitors of the T cell-specific alternative p38 activation pathway and methods of use” (The United States of America, as represented by the …, priority 2012, dated 2016)", "key": {"[1]": {"system": "tumor-infiltrating T cells", "experiment": "PANC02 model, cytokine expression of tumor infiltrating cells", "format": "in vivo, mice", "conditions": "80 μg intra-tumor every other day for 1 week", "protocol": "WT C57BL/6 mice were injected with 7.5×10^5 PANC02 cells. After 16 days, mice were injected with 80 μg of either (11R)-71-85 or (11R)-Scrambled (Scr) every other day for 1 week. Twenty-four hours after the last intra-tumor injection, tumor infiltrating cells were harvested and restimulated with PMA and ionomycin, or left unstimulated, in the presence of Golgi inhibitor for 4 hours. Expression of cytokines (IL-17A and TNFα—FIG. 10A; IL-10 and IFNγ—FIG. 10B) was determined by flow cytometry.\nThe effect of intra-tumor injection of (11R)-71-85 on cytokine secretion from tumor-infiltrating T cells was also evaluated in mice with pancreatic tumors. WT C57BL/6 mice were injected with 7.5×10^5 PANC02 cells and 16 days later mice received intra-tumor injections of 80 μg of (11R)-71-85 or (11R)-Scrambled every other day for 1 week. Twenty-four hours following the last injection, tumor infiltrating cells were harvested and restimulated with PMA and ionomycin, or left unstimulated, in the presence of Golgi inhibitor for 4 hours. Expression of TNF-α, IFNγ, IL-10 and IL-17 was determined by flow cytometry. […] There was no difference in TNF-α secretion after restimulation, which bypasses TCR signaling and activates the classical MAPK cascade. There was no difference between unstimulated and restimulated cells for the other cytokines tested (IFNγ, IL-10, and IL-17; FIGS. 10A-10B)."}, "Naïve CD4+ T cells": {"system": "Naïve CD4+ T cells", "experiment": "Th1 differentiation of naïve CD4+ T cells", "format": "cell-based", "conditions": "2 μM; Th0 or Th1 polarizing conditions 3 days; relative to medium or (11R)-Ctrl", "protocol": "FIGS. 5A-5D are a series of flow cytometry plots showing (11R)-71-85 inhibits Th1 differentiation. Naïve CD4^+ T cells were treated with either 2 μM of (11R)-71-85 or (11R)-Ctrl for two hours and after washing, cells were stimulated with anti-CD3 plus anti-CD28 in Th0 (neutral, FIG. 5A and FIG. 5C) or Th1 polarizing conditions (FIG. 5B and FIG. 5D) for 3 days. Cells were treated again with the same concentration of either medium (first column), (11R)-Ctrl (second column), or (11R)-71-85 (third column) for 2 hours and restimulated with PMA plus ionomycin in the presence of Golgi inhibitor for 4 hours. Expression of T bet and interferon (IFN)-γ (indicators of Th1 cells typical of a pro-inflammatory response) was analyzed by flow cytometry.\nAdditional studies were carried out to evaluate the effect of (11R)-71-85 on T helper (Th) cell differentiation. Expression of IFN-γ and T-bet was used as an indicator of Th1 cells typical of a pro-inflammatory response. Naïve CD4^+ T cells were treated with either medium or 2 μM of (11R)-71-85 or (11R)-Ctrl for two hours and after washing, cells were stimulated with anti-CD3 plus anti-CD28 in Th0 (neutral) or Th1 polarizing conditions for 3 days. […] Expression of T bet and IFNγ was analyzed by flow cytometry (FIGS. 5A-5D)."}, "[2]": {"system": "p38 (alternative activation pathway)", "experiment": "In vitro kinase assay: ATF2 phosphorylation by Zap70-activated p38", "format": "biochemical", "conditions": "(11R)-71-85 0.2-4.0 μg, (11R)-Ctrl 4.0 μg; 30 minutes at 30° C.; p38 activated with Zap70", "protocol": "Purified p38 proteins were activated by incubating with active Zap70 in kinase buffer for 1 hour. (11R)-71-85 or (11R)-Ctrl was then added and incubated for 30 minutes at 30° C. One μg ATF2 and 10 μCi [^32P]ATP were then added and incubated for 45 minutes at 30° C. Phosphorylated products were resolved by SDS-PAGE, transferred to nitrocellulose membranes, and visualized by phosphorimager.\nTo test whether (11R)-71-85 can inhibit the alternative p38 activation pathway in vitro, an assay was performed to detect phosphorylation of activating transcription factor 2 (ATF2), a target of activated p38, in the presence and absence of (11R)-71-85. Purified p38 proteins were activated by incubation with active Zap70 in kinase buffer for 1 hour. (11R)-71-85 (0.2, 0.5, 1.0, 2.0 or 4.0 μg) or (11R)-Ctrl (4.0 μg) was then added and incubated for 30 minutes at 30° C. One μg ATF2 and 10 μCi [^32P]ATP were added and incubated for 45 minutes at 30° C. Phosphorylated products were resolved by SDS-PAGE, transferred to nitrocellulose membranes, and visualized by phosphorimager. […] In addition, the decrease in ATF2 phosphorylation was dependent on the dose of (11R)-71-85."}}, "note": "“Also recorded” adds a separate entry of the source."}
{"substance": "(11R)-71-85: fusion protein: 11 arginine residues added to the N-terminus of the Gadd45α 71-85 peptide (LQIHFTLIQAFCCEN; N-terminal 11 arginine; UniProt P24522 71-85, looked up, fragment)", "values": [{"measurement": "expression of the other cytokines tested (IFNγ, IL-10, and IL-17)", "setting": "[1]; unstimulated and restimulated cells", "value": "no difference"}, {"measurement": "TNF-α secretion after restimulation with PMA and ionomycin", "setting": "[1]; versus (11R)-Scrambled", "value": "no difference"}, {"measurement": "TNF-α secretion, unstimulated tumor infiltrating cells", "setting": "[1]; versus (11R)-Scrambled", "value": "reduced"}, {"measurement": "expression of IFN-γ", "setting": "Naïve CD4+ T cells", "value": "reduced expression; also recorded: blunted"}, {"measurement": "expression of T-bet", "setting": "Naïve CD4+ T cells", "value": "reduced expression; also recorded: blunted"}, {"measurement": "phosphorylation of ATF2", "setting": "[2]", "value": "decrease in phosphorylation of ATF2"}]}
